In US20240116921A1, “LACTAM (HETERO)[…] DERIVATIVES AS INHIBITORS OF ERBB2” (EnLiven Therapeutics, Inc., priority 2020, published 2024):
pIC50: −log10 of the molar value. Counter-ions that a name gives are not always drawn.

What was measured:
[1] = molecular target: T1, phosphorylated ERBB2 (pERBB2) (Homo sapiens, UniProt P04626); assay: Detection of phosphorylated ERBB2 (pERBB2) by ELISA in BT-474 cells; assay type: cell-based; conditions: four hours incubation
T1 construct: endogenous in cells; host or cells: BT-474
T1 sequence (P04626 23-1255): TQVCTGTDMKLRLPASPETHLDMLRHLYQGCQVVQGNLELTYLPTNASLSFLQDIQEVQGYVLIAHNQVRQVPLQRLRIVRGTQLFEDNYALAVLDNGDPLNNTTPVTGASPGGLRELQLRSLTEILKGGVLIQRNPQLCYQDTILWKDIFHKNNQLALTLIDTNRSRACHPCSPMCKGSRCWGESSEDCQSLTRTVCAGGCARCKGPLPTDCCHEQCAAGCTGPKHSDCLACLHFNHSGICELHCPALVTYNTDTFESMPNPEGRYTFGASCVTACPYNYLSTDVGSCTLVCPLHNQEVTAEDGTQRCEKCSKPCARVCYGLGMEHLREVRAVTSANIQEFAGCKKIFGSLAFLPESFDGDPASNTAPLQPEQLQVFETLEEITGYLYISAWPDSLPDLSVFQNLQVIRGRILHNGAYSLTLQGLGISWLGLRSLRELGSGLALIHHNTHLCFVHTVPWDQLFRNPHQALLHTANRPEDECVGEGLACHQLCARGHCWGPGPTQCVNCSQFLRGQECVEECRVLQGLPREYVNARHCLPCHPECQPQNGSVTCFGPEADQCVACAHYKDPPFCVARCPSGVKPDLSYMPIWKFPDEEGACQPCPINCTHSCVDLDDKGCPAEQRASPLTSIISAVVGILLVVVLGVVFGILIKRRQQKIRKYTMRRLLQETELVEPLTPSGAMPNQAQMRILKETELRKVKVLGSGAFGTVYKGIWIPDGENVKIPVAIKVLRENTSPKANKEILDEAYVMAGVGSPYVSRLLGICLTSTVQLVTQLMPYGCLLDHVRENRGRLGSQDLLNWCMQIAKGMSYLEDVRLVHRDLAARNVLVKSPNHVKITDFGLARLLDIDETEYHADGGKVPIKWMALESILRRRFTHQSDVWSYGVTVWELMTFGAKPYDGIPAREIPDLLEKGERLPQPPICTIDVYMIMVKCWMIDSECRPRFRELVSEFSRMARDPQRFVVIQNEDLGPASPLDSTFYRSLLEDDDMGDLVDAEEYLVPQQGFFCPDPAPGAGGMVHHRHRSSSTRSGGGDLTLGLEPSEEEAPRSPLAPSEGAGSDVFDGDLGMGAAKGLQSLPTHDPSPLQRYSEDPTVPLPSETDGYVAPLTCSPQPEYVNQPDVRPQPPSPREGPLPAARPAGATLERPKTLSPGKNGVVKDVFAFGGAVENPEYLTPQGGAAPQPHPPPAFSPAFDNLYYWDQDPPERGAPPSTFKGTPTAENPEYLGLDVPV
Method in brief: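 Phospho-ERBB2 in lysates was quantified by sandwich ELISA (A450, TMB) after 4 h compound exposure at 37 °C of BT-474 cells seeded at 2.0×10^4 per well. Compounds tested at 10 µM to 0.01 nM final in four-fold steps; activity normalized to DMSO (0.1%) high and cell-free low controls.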

[2] = molecular target: T2, phosphorylated EGFR (pEGFR) (Homo sapiens, UniProt P00533); assay: Detection of phosphorylated EGFR (pEGFR) in EGF-stimulated A431 cells; assay type: cell-based; conditions: A431 cells (10% FBS), 4 hours incubation, EGF 30 ng/mL 10 minutes, AlphaLISA
T2 construct: performed to measure phosphorylated EGFR levels using A431 cells (10% FBS); endogenous in cells; host or cells: A431
T2 sequence (P00533 25-1210): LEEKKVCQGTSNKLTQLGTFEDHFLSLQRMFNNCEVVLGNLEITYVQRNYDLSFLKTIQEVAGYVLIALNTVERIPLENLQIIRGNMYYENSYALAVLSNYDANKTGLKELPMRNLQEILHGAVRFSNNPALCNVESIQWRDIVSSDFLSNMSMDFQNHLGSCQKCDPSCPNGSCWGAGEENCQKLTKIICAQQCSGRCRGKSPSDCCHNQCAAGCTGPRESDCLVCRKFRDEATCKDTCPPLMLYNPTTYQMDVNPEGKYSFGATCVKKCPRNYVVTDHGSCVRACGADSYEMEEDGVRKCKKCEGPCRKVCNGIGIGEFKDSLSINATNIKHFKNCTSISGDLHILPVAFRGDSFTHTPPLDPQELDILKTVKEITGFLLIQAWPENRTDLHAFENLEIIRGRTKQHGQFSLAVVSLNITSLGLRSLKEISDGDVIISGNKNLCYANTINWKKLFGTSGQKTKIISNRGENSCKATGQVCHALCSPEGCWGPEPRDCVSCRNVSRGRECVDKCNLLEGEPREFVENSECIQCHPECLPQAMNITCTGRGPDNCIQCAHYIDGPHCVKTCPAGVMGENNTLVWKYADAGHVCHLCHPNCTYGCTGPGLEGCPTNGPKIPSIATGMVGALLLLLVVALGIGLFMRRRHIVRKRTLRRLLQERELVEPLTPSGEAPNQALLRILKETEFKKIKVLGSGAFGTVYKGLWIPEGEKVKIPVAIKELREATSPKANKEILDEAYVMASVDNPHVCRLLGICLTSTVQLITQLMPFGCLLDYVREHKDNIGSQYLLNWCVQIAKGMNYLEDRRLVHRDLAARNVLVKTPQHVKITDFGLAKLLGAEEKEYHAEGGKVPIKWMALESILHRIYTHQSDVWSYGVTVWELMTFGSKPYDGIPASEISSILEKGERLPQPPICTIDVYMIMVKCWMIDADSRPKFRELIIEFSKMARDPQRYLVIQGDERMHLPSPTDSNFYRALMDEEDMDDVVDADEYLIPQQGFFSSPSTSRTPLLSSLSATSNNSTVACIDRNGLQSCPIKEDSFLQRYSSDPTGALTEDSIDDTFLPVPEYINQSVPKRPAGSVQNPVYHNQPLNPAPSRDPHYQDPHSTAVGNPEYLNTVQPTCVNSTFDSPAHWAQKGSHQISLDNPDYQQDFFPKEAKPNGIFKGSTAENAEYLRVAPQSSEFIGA
Method in brief: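 AlphaLISA read-out of EGFR phosphorylation after a 10-min EGF pulse (30 ng/mL final). A431 cells (10% FBS) had been exposed to compound for 4 h at 37 °C. IC50 was fitted from % inhibition normalised to DMSO and staurosporine control lysates.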

[3] = molecular target: Ba/F3 ERBB2 A775_G776insYVMA (Homo sapiens, UniProt P04626, DUP772-775, cells depend on it); assay: Cell viability assay, Ba/F3 ERBB2 A775_G776insYVMA; assay type: cell-based, mouse; conditions: Ba/F3 ERBB2 YVMA cells, cell viability, 72 hours, CellTiter Glo; Table B5; read-out: Ba/F3 ERBB2 YVMA, IC50
Chain of Ba/F3 ERBB2 A775_G776insYVMA (P04626 with tags, fused parts or gaps DUP772-775): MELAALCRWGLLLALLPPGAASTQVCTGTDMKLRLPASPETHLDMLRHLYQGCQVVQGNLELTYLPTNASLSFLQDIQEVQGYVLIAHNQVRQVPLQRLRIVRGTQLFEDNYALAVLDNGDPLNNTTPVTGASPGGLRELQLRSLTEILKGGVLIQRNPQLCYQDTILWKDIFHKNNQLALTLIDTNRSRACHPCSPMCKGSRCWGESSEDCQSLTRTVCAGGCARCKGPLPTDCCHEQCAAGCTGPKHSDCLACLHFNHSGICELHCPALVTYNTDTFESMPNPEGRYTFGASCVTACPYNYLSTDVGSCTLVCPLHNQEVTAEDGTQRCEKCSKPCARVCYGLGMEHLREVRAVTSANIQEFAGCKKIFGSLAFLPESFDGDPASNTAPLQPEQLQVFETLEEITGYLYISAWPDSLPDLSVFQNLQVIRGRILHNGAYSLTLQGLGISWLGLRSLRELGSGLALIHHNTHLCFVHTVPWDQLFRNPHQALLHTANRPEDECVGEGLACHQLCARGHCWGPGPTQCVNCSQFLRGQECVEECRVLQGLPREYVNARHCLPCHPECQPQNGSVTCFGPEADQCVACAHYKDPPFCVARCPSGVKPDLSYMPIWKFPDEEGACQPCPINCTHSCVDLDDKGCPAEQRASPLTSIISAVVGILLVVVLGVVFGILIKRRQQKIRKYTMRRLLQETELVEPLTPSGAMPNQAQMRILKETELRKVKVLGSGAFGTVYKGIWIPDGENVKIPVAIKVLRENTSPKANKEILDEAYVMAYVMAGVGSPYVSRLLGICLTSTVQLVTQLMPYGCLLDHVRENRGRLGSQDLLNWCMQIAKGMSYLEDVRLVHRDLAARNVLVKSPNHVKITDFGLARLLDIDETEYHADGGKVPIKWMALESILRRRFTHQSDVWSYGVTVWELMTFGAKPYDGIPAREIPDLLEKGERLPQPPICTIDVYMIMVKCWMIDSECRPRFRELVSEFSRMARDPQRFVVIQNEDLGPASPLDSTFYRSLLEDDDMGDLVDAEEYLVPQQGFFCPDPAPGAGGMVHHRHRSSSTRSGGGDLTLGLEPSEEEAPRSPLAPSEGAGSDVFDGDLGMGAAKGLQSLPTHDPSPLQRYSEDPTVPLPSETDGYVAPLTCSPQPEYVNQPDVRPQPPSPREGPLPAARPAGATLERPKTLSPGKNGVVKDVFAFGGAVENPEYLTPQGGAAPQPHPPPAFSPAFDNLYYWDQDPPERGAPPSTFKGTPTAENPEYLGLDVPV
Method in brief: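 Viability after 72 h compound treatment (37 °C, 5% CO2) was quantified by CellTiter-Glo luminescence of intracellular ATP, with sigmoidal dose-response fitting. Cells were retrovirally engineered Ba/F3 lines whose growth depends on the mutant human ERBB2 in place of IL-3, plated at 3000 per well.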

Row | pIC50 [1] | pIC50 [2] | SMILES | GI50 [3] [nM]
1 | 7.49 | 6.00 | Cc1cc(Nc2ncnc3cnc(N4CC(C)/C(=C\CN(C)C)C4=O)cc23)c(F)cc1Oc1ccc2c(c1)nnn2C (single isomer, unassigned) [Example S115, Enantiomer #1, (3E)-3-[2-(dimethylamino)ethylidene]-1-[4-({2-fluoro-5-methyl-4-[(1-methyl-1,2,3-benzotriazol-5-yl)oxy]phenyl}amino)pyrido[3,4-d]pyrimidin-6-yl]-4-methylpyrrolidin-2-one] | 11.3
2 | 8.23 | 6.39 | C=C1C(=O)N(c2ccc3ncnc(Nc4ccc(Oc5ccn6ncnc6c5)c(C)c4)c3c2)CC1CO (stereo not drawn) [Compound 29, 4-(hydroxymethyl)-1-{4-[(3-methyl-4-{[1,2,4]triazolo[1,5-a]pyridin-7-yloxy}phenyl)amino]quinazolin-6-yl}-3-methylidenepyrrolidin-2-one] | 31.5
3 | 7.65 | 6.17 | Cc1cc(Nc2ncnc3cnc(N4CC/C(=C\CN(C)C)C4=O)cc23)ccc1Oc1ccc2c(c1)ncn2C [Compound 45, (E)-3-(2-(dimethylamino)ethylidene)-1-(4-((3-methyl-4-((1-methyl-1H-benzo[d]imidazol-5-yl)oxy)phenyl)amino)pyrido[3,4-d]pyrimidin-6-yl)pyrrolidin-2-one] | 1.79
4 | 6.89 | < 5.00 | CCn1cnc2cc(Oc3ccc(Nc4ncnc5ccc(N6CC/C(=C\CN(C)C)C6=O)nc45)cc3C)ccc21 [Compound 65, (3E)-3-[2-(dimethylamino)ethylidene]-1-[4-({4-[(1-ethyl-1,3-benzodiazol-5-yl)oxy]-3-methylphenyl}amino)pyrido[3,2-d]pyrimidin-6-yl]pyrrolidin-2-one] | 36.4
5 | 7.09 | < 5.00 | C=C1CCN(c2ccc3ncnc(Nc4ccc(Cc5ccc6c(c5)ncn6C)c(C)c4)c3c2)C1=O [Compound 52, 1-[4-({3-methyl-4-[(1-methyl-1,3-benzodiazol-5-yl)methyl]phenyl}amino)quinazolin-6-yl]-3-methylidenepyrrolidin-2-one] | 21.9
6 | 7.92 | 5.52 | Cc1cc(Nc2ncnc3cnc(N4CC/C(=C\CCN(C)C)C4=O)cc23)ccc1Oc1ccn2ncnc2c1 [Compound 60, (E)-1-(4-(4-([1,2,4]triazolo[1,5-a]pyridin-7-yloxy)-3-methylphenylamino)pyrido[3,4-d]pyrimidin-6-yl)-3-(3-(dimethylamino)propylidene)pyrrolidin-2-one formate] | 22.5
7 | 7.54 | 5.35 | C=C1C(=O)N(c2ccc3ncnc(Nc4ccc(Oc5ccc6c(c5)ncn6C)c(C)c4)c3c2)C[C@@H]1C [Compound 41, (R)-4-methyl-1-(4-((3-methyl-4-((1-methyl-1H-benzo[d]imidazol-5-yl)oxy)phenyl)amino)quinazolin-6-yl)-3-methylenepyrrolidin-2-one] | 29
8 | 7.66 | 5.11 | CN(C)C/C=C1\CCN(c2ccc3ncnc(Nc4ccc(Oc5ccn6ncnc6c5)cc4F)c3n2)C1=O [Compound 156, (E)-1-(4-((4-([1,2,4]triazolo[1,5-a]pyridin-7-yloxy)-2-fluorophenyl)amino)pyrido[3,2-d]pyrimidin-6-yl)-3-(2-(dimethylamino)ethylidene)pyrrolidin-2-one] | 23.3
9 | 7.38 | 6.29 | CCc1ccc(Oc2ccc(Nc3ncnc4cnc(N5CC/C(=C\CN(C)C)C5=O)cc34)cc2C)cn1 [Compound 73, (E)-3-(2-(dimethylamino)ethylidene)-1-(4-((4-((6-ethylpyridin-3-yl)oxy)-3-methylphenyl)amino)pyrido[3,4-d]pyrimidin-6-yl)pyrrolidin-2-one] | 22
10 | 7.52 | 6.01 | Cc1cc(Nc2ncnc3ccc(N4CC/C(=C\CN(C)C)C4=O)nc23)ccc1Oc1ccc2c(c1)nnn2C [Compound 68, (3E)-3-[2-(dimethylamino)ethylidene]-1-[4-({3-methyl-4-[(1-methyl-1,2,3-benzotriazol-5-yl)oxy]phenyl}amino)pyrido[3,2-d]pyrimidin-6-yl]pyrrolidin-2-one] | 3.81
11 | 7.57 | 5.99 | C=C1C(=O)N(c2ccc3ncnc(Nc4ccc(Oc5ccc6c(c5)ncn6C)c(C)c4)c3c2)C[C@H]1C [Compound 37, (S)-4-methyl-1-(4-((3-methyl-4-((1-methyl-1H-benzo [d]imidazol-5-yl)oxy)phenyl)amino)quinazolin-6-yl)-3-methylenepyrrolidin-2-one] | 17.4
12 | 7.64 | 6.60 | Cc1cc(Nc2ncnc3ccc(N4CC/C(=C\CN(C)C)C4=O)nc23)ccc1Oc1ccn(C(F)F)c(=O)c1 [Compound 55, 1-(difluoromethyl)-4-[4-({6-[(3E)-3-[2-(dimethylamino)ethylidene]-2-oxopyrrolidin-1-yl]pyrido[3,2-d]pyrimidin-4-yl}amino)-2-methylphenoxy]pyridin-2-one] | 23
13 | 7.85 | 6.24 | CC1CN(c2ccc3ncnc(Nc4ccc(Oc5ccn6ncnc6c5)c(F)c4)c3n2)C(=O)/C1=C/CN(C)C (single isomer, unassigned) [Example S127, Enantiomer #1, (E)-1-(4-((4-([1,2,4]triazolo[1,5-a]pyridin-7-yloxy)-3-fluorophenyl)amino)pyrido[3,2-d]pyrimidin-6-yl)-3-(2-(dimethylamino)ethylidene)-4-methylpyrrolidin-2-one] | 2.88
14 | 7.90 | 6.76 | Cc1cc(Nc2ncnc3ccc(N4C(=O)C(=CCN(C)C)C5CC54)nc23)ccc1Oc1ccn2ncnc2c1 (single isomer, unassigned) [Example S108, Enantiomer #2, 4-[2-(dimethylamino)ethylidene]-2-{4-[(3-methyl-4-{[1,2,4]triazolo[1,5-a]pyridin-7-yloxy}phenyl)amino]pyrido[3,2-d]pyrimidin-6-yl}-2-azabicyclo[3.1.0]hexan-3-one] | 4.88
15 | 7.67 | < 5.00 | CN(C)C/C=C1\CCN(c2cc3c(Nc4ccc(Oc5ccc6c(c5)ncn6C)c(F)c4)ncnc3cn2)C1=O [Compound 128, (3E)-3-[2-(dimethylamino)ethylidene]-1-[4-({3-fluoro-4-[(1-methyl-1,3-benzodiazol-5-yl)oxy]phenyl}amino)pyrido[3,4-d]pyrimidin-6-yl]pyrrolidin-2-one] | 7.9
16 | 7.78 | 6.56 | C=C1C(=O)N(c2ccc3ncnc(Nc4ccc(Oc5ccn6ncnc6c5)c(C)c4)c3c2)CC1COCCN(C)C (single isomer, unassigned) [Example S111, Enantiomer #1, 1-(4-(4-([1,2,4]triazolo[1,5-a]pyridin-7-yloxy)-3-methylphenylamino)quinazolin-6-yl)-4-((2-(dimethylamino)ethoxy)methyl)-3-methylenepyrrolidin-2-one] | 18.4
17 | 7.35 | 7.27 | Cc1cc(Nc2ncnc3ccc(N4CC/C(=C\CN(C)C)C4=O)nc23)ccc1Oc1ccc2scnc2c1 [Compound 67, (E)-1-(4-((4-(benzo[d]thiazol-5-yloxy)-3-methylphenyl)amino)pyrido[3,2-d]pyrimidin-6-yl)-3-(2-(dimethylamino)ethylidene)pyrrolidin-2-one] | 1.82
18 | 7.47 | 7.03 | Cc1cc(Nc2ncnc3ccc(N4CC/C(=C\CN(C)C)C4=O)nc23)ccc1Oc1ccc2ocnc2c1 [Compound 66, (E)-1-(4-((4-(benzo[d]oxazol-5-yloxy)-3-methylphenyl)amino)pyrido[3,2-d]pyrimidin-6-yl)-3-(2-(dimethylamino)ethylidene)pyrrolidin-2-one] | 1.95
19 | 7.39 | 5.63 | C=C1C(=O)N(c2ccc3ncnc(Nc4ccc(Cc5ccn6ncnc6c5)c(C)c4)c3c2)C[C@H]1C [Compound 36, (S)-1-(4-((4-([1,2,4]triazolo[1,5-a]pyridin-7-ylmethyl)-3-methylphenyl)amino)quinazolin-6-yl)-4-methyl-3-methylenepyrrolidin-2-one] | 80.5
20 | 7.54 | 6.16 | Cc1cc(Nc2ncnc3ccc(N4CC/C(=C\[C@@H]5CCCN5C)C4=O)nc23)ccc1Oc1ccn2ncnc2c1 [Compound 89, (S,E)-1-(4-((4-([1,2,4]triazolo[1,5-a]pyridin-7-yloxy)-3-methylphenyl)amino)pyrido[3,2-d]pyrimidin-6-yl)-3-((1-methylpyrrolidin-2-yl)methylene)pyrrolidin-2-one] | 1.87
21 | 7.81 | 6.28 | [2H]C([2H])([2H])n1cnc2cc(Oc3ccc(Nc4ncnc5ccc(N6CC/C(=C\CN(C)C)C6=O)nc45)cc3C)ccc21 [Compound 119, (E)-3-(2-(dimethylamino)ethylidene)-1-(4-((3-methyl-4-((1-(methyl-d3)-1H-benzo[d]imidazol-5-yl)oxy)phenyl)amino)pyrido[3,2-d]pyrimidin-6-yl)pyrrolidin-2-one] | 1.18
